Measurements as given in ChEMBL document CHEMBL1157625, “Design, synthesis and preliminary activity assay of 1,2,3,4-tetrahydroisoquinoline-3-carboxylic acid derivatives as novel Histone deacetylases (HDACs) inhibitors” (Bioorg Med Chem, 2010).

Assays:
Histone deacetylase 8 = target: T1, Histone deacetylase 8 (Homo sapiens, UniProt Q9BY41)
T1 sequence (Q9BY41 whole entry): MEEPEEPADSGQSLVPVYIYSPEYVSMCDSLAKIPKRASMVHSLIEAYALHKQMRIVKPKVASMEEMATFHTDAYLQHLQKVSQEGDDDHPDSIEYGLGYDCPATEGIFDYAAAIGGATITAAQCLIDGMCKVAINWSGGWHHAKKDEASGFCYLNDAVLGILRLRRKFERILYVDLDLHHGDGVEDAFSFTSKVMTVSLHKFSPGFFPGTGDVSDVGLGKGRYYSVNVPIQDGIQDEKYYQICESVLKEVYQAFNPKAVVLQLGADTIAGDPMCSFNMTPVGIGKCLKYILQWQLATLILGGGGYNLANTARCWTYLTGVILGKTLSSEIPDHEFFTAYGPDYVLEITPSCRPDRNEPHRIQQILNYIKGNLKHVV
Description: Inhibition of HDAC8 expressed in Escherichia coli assessed as Boc-Lys (acetyl)-AMC substrate hydrolysis by fluorimetric assay

HCT-116 = assay: Antiproliferative activity against human HCT116 cells after 48 hrs by MTT assay; type: functional, cell-based; settings: HCT-116, 48 h
SK-OV-3 = assay: Antiproliferative activity against human SKOV3 cells after 48 hrs by MTT assay; type: functional, cell-based; settings: SK-OV-3, 48 h
HL-60 = assay: Antiproliferative activity against human HL60 cells after 48 hrs by MTT assay; type: functional, cell-based; settings: HL-60, 48 h

`CC(C)(C)NC(=O)[C@@H]1Cc2ccc(OCC(=O)NO)cc2CN1` was tested, and the IC50 (Histone deacetylase 8) was 12.2 µM.

`CC(C)(C)OC(=O)N1Cc2cc(OCC(=O)NO)ccc2C[C@H]1C(=O)Nc1ccccc1` gave an IC50 (Histone deacetylase 8) of 1.29 µM.

For `O=C(COc1ccc2c(c1)CN[C@H](C(=O)Nc1ccccc1)C2)NO`, the IC50 (Histone deacetylase 8) was 8.21 µM.

`CC(C)(C)OC(=O)N1Cc2cc(OCC(=O)NO)ccc2C[C@H]1C(=O)NCc1ccccc1` showed an IC50 (Histone deacetylase 8) of 3.41 µM.

`COc1ccc(NC(=O)[C@@H]2Cc3ccc(OCC(=O)NO)cc3CN2)cc1` was tested, and the IC50 (Histone deacetylase 8) was 5.57 µM.

For `O=C(COc1ccc2c(c1)CN[C@H](C(=O)NCc1ccccc1)C2)NO`, the IC50 (Histone deacetylase 8) was 5.1 µM.

`CC(C)(C)OC(=O)N1Cc2cc(OCC(=O)NO)ccc2C[C@H]1C(=O)NCCc1ccccc1` was tested, and the IC50 (Histone deacetylase 8) was 2.67 µM.

`O=C(COc1ccc2c(c1)CN[C@H](C(=O)Nc1ccc(F)cc1)C2)NO` was tested, and the IC50 (Histone deacetylase 8) was 3.23 µM.

For `CCCCCCNC(=O)[C@@H]1Cc2ccc(OCC(=O)NO)cc2CN1C(=O)OC(C)(C)C`, the IC50 (Histone deacetylase 8) was 4.42 µM.

For `O=C(COc1ccc2c(c1)CN[C@H](C(=O)Nc1ccc(-c3ccccc3)cc1)C2)NO`, the IC50 (Histone deacetylase 8) was 2.21 µM.

`Cc1ccc(NC(=O)[C@@H]2Cc3ccc(OCC(=O)NO)cc3CN2C(=O)OC(C)(C)C)cc1` was tested, and the IC50 (Histone deacetylase 8) was 1.65 µM.

Work on `CCCCCNC(=O)[C@@H]1Cc2ccc(OCC(=O)NO)cc2CN1C(=O)OC(C)(C)C` yielded an IC50 (Histone deacetylase 8) of 3.02 µM.

`CC(C)(C)OC(=O)N1Cc2cc(OCC(=O)NO)ccc2C[C@H]1C(=O)Nc1ccc(F)c(Cl)c1` gave an IC50 (Histone deacetylase 8) of 1.55 µM.

In the case of `CC(C)(C)OC(=O)N1Cc2cc(OCC(=O)NO)ccc2C[C@H]1C(=O)Nc1cccc2ccccc12`, the IC50 (Histone deacetylase 8) is reported as 4.25 µM.

With `O=C(COc1ccc2c(c1)CN[C@H](C(=O)Nc1cccc3ccccc13)C2)NO` the IC50 (HCT-116) was 170 µM, the IC50 (SK-OV-3) was 750 µM and the IC50 (HL-60) was 980 µM. The IC50 (Histone deacetylase 8) was 1.06 µM.

`O=C(COc1ccc2c(c1)CN1C(=O)N(c3ccc(-c4ccccc4)cc3)C(=O)[C@@H]1C2)NO` was tested, and the IC50 (Histone deacetylase 8) was > 50 µM.

`Cc1ccc(NC(=O)[C@@H]2Cc3ccc(OCC(=O)NO)cc3CN2)c(C)c1` was tested, and the IC50 (Histone deacetylase 8) was 3.39 µM.

`CCCCCCNC(=O)[C@@H]1Cc2ccc(OCC(=O)NO)cc2CN1` was tested, and the IC50 (Histone deacetylase 8) was 5.77 µM.

For `CC(C)(C)OC(=O)N1Cc2cc(OCC(=O)NO)ccc2C[C@H]1C(=O)Nc1cccc(Cl)c1`, the IC50 (HCT-116) was 490 µM, the IC50 (SK-OV-3) was 680 µM and the IC50 (HL-60) was 960 µM. It also gave an IC50 (Histone deacetylase 8) of 1.17 µM.

With `Cc1ccc(NC(=O)[C@@H]2Cc3ccc(OCC(=O)NO)cc3CN2C(=O)OC(C)(C)C)c(C)c1` the IC50 (Histone deacetylase 8) was 3.78 µM.

`Cc1ccc(NC(=O)[C@@H]2Cc3ccc(OCC(=O)NO)cc3CN2)cc1` was tested, and the IC50 (Histone deacetylase 8) was 3.82 µM.

With `Cc1ccccc1NC(=O)[C@@H]1Cc2ccc(OCC(=O)NO)cc2CN1C(=O)OC(C)(C)C` the IC50 (Histone deacetylase 8) was 4 µM.

In the case of `Cc1ccccc1NC(=O)[C@@H]1Cc2ccc(OCC(=O)NO)cc2CN1`, the IC50 (Histone deacetylase 8) is reported as 4.13 µM.

For `Cc1cccc(NC(=O)[C@@H]2Cc3ccc(OCC(=O)NO)cc3CN2)c1`, the IC50 (Histone deacetylase 8) was 3.62 µM.

`CC(C)(C)OC(=O)N1Cc2cc(OCC(=O)NO)ccc2C[C@H]1C(=O)Nc1ccc(F)cc1` gave an IC50 (Histone deacetylase 8) of 2.56 µM.

`COc1ccc(NC(=O)[C@@H]2Cc3ccc(OCC(=O)NO)cc3CN2C(=O)OC(C)(C)C)cc1` was tested, and the IC50 (HCT-116) was 48 µM, the IC50 (SK-OV-3) was 420 µM and the IC50 (HL-60) was > 2120 µM. It also gave an IC50 (Histone deacetylase 8) of 1 µM.

For `O=C(COc1ccc2c(c1)CN[C@H](C(=O)NCCc1ccccc1)C2)NO`, the IC50 (Histone deacetylase 8) was 4.07 µM.

`O=C(COc1ccc2c(c1)CN[C@H](C(=O)Nc1ccc(F)c(Cl)c1)C2)NO` gave an IC50 (Histone deacetylase 8) of 3.34 µM.

For `O=C(COc1ccc2c(c1)CN(C(=O)OCc1ccccc1)[C@H](C(=O)NCCc1ccccc1)C2)NO`, the IC50 (HCT-116) was 370 µM, the IC50 (SK-OV-3) was > 2000 µM and the IC50 (HL-60) was > 2000 µM. The IC50 (Histone deacetylase 8) was 0.58 µM.

For `Cc1cccc(NC(=O)[C@@H]2Cc3ccc(OCC(=O)NO)cc3CN2C(=O)OC(C)(C)C)c1`, the IC50 (Histone deacetylase 8) was 1.77 µM.

Compound `CC(C)(C)OC(=O)N1Cc2cc(OCC(=O)NO)ccc2C[C@H]1C(=O)Nc1ccc(-c2ccccc2)cc1` has an IC50 (Histone deacetylase 8) of 1.98 µM.

`CC(C)(C)NC(=O)[C@@H]1Cc2ccc(OCC(=O)NO)cc2CN1C(=O)OC(C)(C)C` gave an IC50 (Histone deacetylase 8) of 4.58 µM.

In the case of `O=C(COc1ccc2c(c1)CN1C(=O)N(c3ccccc3)C(=O)[C@@H]1C2)NO`, the IC50 (Histone deacetylase 8) is reported as > 50 µM.

In the case of `O=C(COc1ccc2c(c1)CN[C@H](C(=O)Nc1cccc(Cl)c1)C2)NO`, the IC50 (Histone deacetylase 8) is reported as 3.2 µM.

Compound `CCCCCNC(=O)[C@@H]1Cc2ccc(OCC(=O)NO)cc2CN1` has an IC50 (Histone deacetylase 8) of 3.54 µM.
